Measurements taken from US20040043432A1, “Compounds targeted to cellular locations” (priority 2000, published 2004).
“Also recorded” adds a separate entry of the source.

Tests used:
[1] = tested on: Raji cells; test: confocal microscopy of intracellular localization; assay type: cell-based; conditions: confocal microscope, added singly or with raft markers
Protocol: For confocal microscopy, cells were treated with a variety of compounds and antibodies as described above. The cells were fixed and mounted as described and visualised using an Axiophot microscope (Carl Zeiss) coupled to a Colour Coolview CCD colour camera. Filter settings for the simultaneous detection of red and green fluorescence were used. The digital images were processed using Photoshop software (Adobe Systems). Cell images were obtained that visualised either the surface of the cell or cell sections.
This example follows the same procedure as described in example 13 with the following modifications. In certain experiments, lipid raft targeted compounds were added to the cells either singly, or in combination with other compounds. The compounds were then visualized with fluorescent antibodies or in the case of APT2104 and APT2105 by their intrinsic fluorescence, in each case using a confocal microscope as described in methods.

[2] = tested on: lipid rafts on Raji cells; test: fluorescence microscopy colocalisation with lipid raft markers; assay type: cell-based; conditions: 60 min at 37C, APT2104 with endogenous CD59, APT2105 and APT070 with FITC-CTB
[3] = tested on: classical pathway-mediated haemolysis of sheep erythrocytes; conditions: described in WO 98/02454; cited from earlier work
[4] = tested on: complement-mediated lysis by human serum; test: haemolytic assay (1:400 dilution of human serum); assay type: cell-based; conditions: read-out: concentration required to bring about 50% inhibition of lysis (IH50)
Source text: APT530 is a protein that comprises the short consensus repeats 1,2,3 and 4 of human CD55 (decay accelerating factor, DAF), with a carboxyl terminal cysteine residue expressed in a recombinant form in E. coli cells. cDNA that encoded human DAF mRNA was generated from total brain RNA as described in Example 9. A plasmid to encode APT530 was generated by PCR using the pUC-DAF plasmid as template. Primers were designed to amplify the region of the DAF gene encoding amino acids 35-285 (SCR1-4). The 5′ primer incorporated an NdeI restriction enzyme site, and a codon specifying glutamine, thereby introducing an amino terminal methionine-glutamine amino acid pair. The 3′ primer added a carboxyl terminal cysteine residue and incorporated an EcoRI restriction enzyme site. The PCR product was cloned into the pUC57/T T-vector as described, sequenced, the insert excised with NdeI and EcoRI, and ligated into pET266 (Novagen, Madison, USA). The product of this ligation is the plasmid pET99-01, which expresses DAF (SCR1-4). pET99-01 DNA was introduced into E. coli HAMS113 (see methods) and expression of the recombinant protein induced as described in Example 1. The expression of APT530 was analysed by SDS-PAGE (described in methods). […] Refolded […] was analysed by SDSPAGE, Western blot and the effectiveness of the protein in a haemolytic assay (described in methods). […]

[5] = tested on: complement-mediated lysis of guinea pig erythrocytes by human serum; test: C5b6-initiated reactive lysis of erythrocytes; assay type: cell-based; conditions: reactive lysis assay
Protocol: C56 euglobulin was an essential reagent that was used for the C5b6-initiated reactive lysis of erythrocytes. C56 euglobulin was generated in and purified from some acute-phase sera from post-trauma individuals (such as sports injuries, surgery or childbirth). Blood was drawn from donors in the acute phase of inflammation and allowed to clot at room temperature. To each 10 mls of serum, 0.5 mls of yeast suspension was added and the mixture incubated overnight on a rotator at room temperature. The serum was centrifuged to remove the yeast and dialysed against 0.02M Na/K phosphate, pH 5.4. The precipitate (containing the C56 euglobulin) was collected by centrifugation and redisolved in 0.01M Na/K phosphate/0.05M NaCl, pH7.0 containing 25% v/v glycerol.
Guinea pig erythrocytes (TCS Microbiological, UK) were washed twice in PBS and resuspended to 5% by volume in PBS/0.05% CHAPS. 50 microL of these cells were placed in the wells of a round-bottomed microtitre plate. Samples to be tested were diluted in PBS/0.05% CHAPS and 50 microL of these test solutions then added to the wells containing the guinea pig erythrocytes. The plate was then incubated at 37 degrees Celsius for 20 minutes to allow binding of the samples to the erythrocytes. […] 100 microL of the supernatant was transferred to a clear flat bottomed microtitre plate and the absorbance at 410 nm measured spectroscopically. […]

Molecule	intracellular localization (intracellular fluorescence) [1]	co-localisation with lipid raft markers (FITC-CTB / endogenous CD59) [2]	IC50 [4]	other results
APT070: residues 1-196 of CR1 ([SCR1-3]-Cys) derivatised with myristoyl cationic peptide MSWP-1; WO 98/02454 example 8 [reference compound]	intracellular fluorescence was seen	co-localise; also recorded: discrete punctate pattern		anti-complement activity, potency relative to [SCR1-3]-Cys [3]: 100-1000 fold
N-Myristoyl Gly-Ser-Ser-Lys-Ser-Pro-Ser-Lys-Lys-Lys-Lys-Lys-Lys-Pro-Gly-Glu-Cys(S-succinimido Alexafluor™546 C5)-NH2 [APT2105]	intracellular fluorescence was seen	co-localise; also recorded: discrete punctate pattern		
N-Myristoyl-Gly-Ser-Ser-Lys-Ser-Pro-Ser-Lys-Lys-Lys-Lys-Lys-Lys-Pro-Gly-Glu-Cys(S-succinimido Alexafluor™488 C5)-NH2 [APT2104]	intracellular fluorescence was seen	co-localise; also recorded: discrete punctate pattern		
APT530: short consensus repeats 1,2,3 and 4 of human CD55 (DAF) with a carboxyl terminal cysteine, expressed in E. coli (SEQ ID No: 10) (protein) MQDCGLPPDVPNAQPALEGRTSFPEDTVITYKCEESFVKIPGEKDSVICLKGSQWSDIEEFCNRSCEVPTRLNSASLKQPYITQNYFPVGTVVEYECRPGYRREPSLSPKLTCLQNLKWSTAVEFCKKKSCPNPGEIRNGQIDVPGGILFGATISFSCNTGYKLFGSTSSFCLISGSSVQWSDPLPECREIYCPAPPQIDNGIIQGERDHYGYRQSVTYACNKGFTMIGEHSIYCTVNNDEGEWSGPPPECRGC			~40 nM	
APT2334: APT530 linked to a single molecule of APT542 (MSWP-1) (SEQ ID No: 11) (conjugate, APT530 linked to APT542 (MSWP-1)) MQDCGLPPDVPNAQPALEGRTSFPEDTVITYKCEESFVKIPGEKDSVICLKGSQWSDIEEFCNRSCEVPTRLNSASLKQPYITQNYFPVGTVVEYECRPGYRREPSLSPKLTCLQNLKWSTAVEFCKKKSCPNPGEIRNGQIDVPGGILFGATISFSCNTGYKLFGSTSSFCLISGSSVQWSDPLPECREIYCPAPPQIDNGIIQGERDHYGYRQSVTYACNKGFTMIGEHSIYCTVNNDEGEWSGPPPECRGCCDGPKKKKKKSPSKSSG			0.2 nM	
APT632: soluble CD59 from human urine (u-hCD59, Seq. ID No. 1) thiolated with 2-iminothiolane and linked to APT542 (conjugate, listed as Homo sapiens, thiolated with 2-iminothiolane, linked to APT542) LQCYNCPNPTADCKTAVNCSSDFDACLITKAGLQVYNKCWKFEHCNFNDVTTRLRENELTYYCCKKDLCNFNEQLEN				concentration at which guinea pig erythrocytes are protected from complement-mediated lysis by human serum [5]: greater than 0.5 nM
